pIC50: −log10 of the molar value. Read-outs that look alike come from different tables or passages of the source. Blank lines part the entries; values can stand above or below the molecule they belong to.
Assays:
HDAC9 = HDAC9 (Homo sapiens (Human), UniProt Q9UKV0); details: Table 1, literature data; read-out: Inhibitory Potency (IC50) HDAC 9; cited from earlier work
HDAC8 [1] = biological target: T1, HDAC8 (Homo sapiens (Human), UniProt Q9BY41); details: Table 1, literature data; read-out: Inhibitory Potency (IC50) HDAC 8; cited from earlier work
T1 sequence (Q9BY41 whole entry): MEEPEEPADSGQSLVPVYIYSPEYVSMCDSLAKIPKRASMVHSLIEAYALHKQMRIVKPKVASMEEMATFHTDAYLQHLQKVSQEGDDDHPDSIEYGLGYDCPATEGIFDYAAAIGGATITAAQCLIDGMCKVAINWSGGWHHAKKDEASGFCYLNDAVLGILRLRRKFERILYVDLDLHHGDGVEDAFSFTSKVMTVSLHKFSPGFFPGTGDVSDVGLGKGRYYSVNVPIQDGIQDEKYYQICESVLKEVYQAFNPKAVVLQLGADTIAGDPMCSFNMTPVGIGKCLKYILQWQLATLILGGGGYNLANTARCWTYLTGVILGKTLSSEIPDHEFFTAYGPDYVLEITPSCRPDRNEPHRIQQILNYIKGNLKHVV

HDAC5 = HDAC5 (Homo sapiens (Human), UniProt Q9UQL6); details: Table 1, literature data; read-out: Inhibitory Potency (IC50) HDAC 5; cited from earlier work
HDAC5, sequence (Q9UQL6 whole entry): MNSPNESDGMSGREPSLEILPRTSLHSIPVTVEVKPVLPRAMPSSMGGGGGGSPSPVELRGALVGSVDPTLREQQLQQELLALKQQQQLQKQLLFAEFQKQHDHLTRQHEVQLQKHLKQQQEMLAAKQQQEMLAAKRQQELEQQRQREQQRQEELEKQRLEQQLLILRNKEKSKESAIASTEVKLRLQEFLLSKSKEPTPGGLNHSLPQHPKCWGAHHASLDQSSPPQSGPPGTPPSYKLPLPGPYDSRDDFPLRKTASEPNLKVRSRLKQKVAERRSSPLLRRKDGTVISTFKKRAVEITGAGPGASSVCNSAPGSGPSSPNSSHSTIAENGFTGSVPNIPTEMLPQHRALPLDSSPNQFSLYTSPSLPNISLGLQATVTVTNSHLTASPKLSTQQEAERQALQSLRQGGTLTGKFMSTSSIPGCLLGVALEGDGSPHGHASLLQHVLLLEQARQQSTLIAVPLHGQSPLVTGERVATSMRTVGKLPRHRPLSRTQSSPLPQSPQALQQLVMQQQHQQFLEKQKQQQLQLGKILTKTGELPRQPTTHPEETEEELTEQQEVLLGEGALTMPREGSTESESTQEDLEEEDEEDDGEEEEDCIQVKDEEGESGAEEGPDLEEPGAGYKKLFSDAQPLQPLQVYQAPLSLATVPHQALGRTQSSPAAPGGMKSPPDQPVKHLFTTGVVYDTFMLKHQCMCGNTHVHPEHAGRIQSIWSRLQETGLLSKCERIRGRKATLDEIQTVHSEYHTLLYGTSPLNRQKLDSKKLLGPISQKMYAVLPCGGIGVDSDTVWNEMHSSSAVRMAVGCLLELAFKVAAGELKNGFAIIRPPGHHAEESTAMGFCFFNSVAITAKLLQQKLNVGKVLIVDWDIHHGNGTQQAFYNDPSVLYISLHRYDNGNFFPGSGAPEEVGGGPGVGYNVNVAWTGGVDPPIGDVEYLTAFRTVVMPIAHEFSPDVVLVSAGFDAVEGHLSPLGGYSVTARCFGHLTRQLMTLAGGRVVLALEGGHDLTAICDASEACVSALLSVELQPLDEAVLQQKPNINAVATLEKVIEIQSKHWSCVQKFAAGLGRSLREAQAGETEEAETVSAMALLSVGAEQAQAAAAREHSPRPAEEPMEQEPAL

HDAC7 = HDAC7 (Homo sapiens (Human), UniProt Q8WUI4); details: Table 1, literature data; read-out: Inhibitory Potency (IC50) HDAC 7; cited from earlier work
HDAC7, sequence (Q8WUI4 whole entry): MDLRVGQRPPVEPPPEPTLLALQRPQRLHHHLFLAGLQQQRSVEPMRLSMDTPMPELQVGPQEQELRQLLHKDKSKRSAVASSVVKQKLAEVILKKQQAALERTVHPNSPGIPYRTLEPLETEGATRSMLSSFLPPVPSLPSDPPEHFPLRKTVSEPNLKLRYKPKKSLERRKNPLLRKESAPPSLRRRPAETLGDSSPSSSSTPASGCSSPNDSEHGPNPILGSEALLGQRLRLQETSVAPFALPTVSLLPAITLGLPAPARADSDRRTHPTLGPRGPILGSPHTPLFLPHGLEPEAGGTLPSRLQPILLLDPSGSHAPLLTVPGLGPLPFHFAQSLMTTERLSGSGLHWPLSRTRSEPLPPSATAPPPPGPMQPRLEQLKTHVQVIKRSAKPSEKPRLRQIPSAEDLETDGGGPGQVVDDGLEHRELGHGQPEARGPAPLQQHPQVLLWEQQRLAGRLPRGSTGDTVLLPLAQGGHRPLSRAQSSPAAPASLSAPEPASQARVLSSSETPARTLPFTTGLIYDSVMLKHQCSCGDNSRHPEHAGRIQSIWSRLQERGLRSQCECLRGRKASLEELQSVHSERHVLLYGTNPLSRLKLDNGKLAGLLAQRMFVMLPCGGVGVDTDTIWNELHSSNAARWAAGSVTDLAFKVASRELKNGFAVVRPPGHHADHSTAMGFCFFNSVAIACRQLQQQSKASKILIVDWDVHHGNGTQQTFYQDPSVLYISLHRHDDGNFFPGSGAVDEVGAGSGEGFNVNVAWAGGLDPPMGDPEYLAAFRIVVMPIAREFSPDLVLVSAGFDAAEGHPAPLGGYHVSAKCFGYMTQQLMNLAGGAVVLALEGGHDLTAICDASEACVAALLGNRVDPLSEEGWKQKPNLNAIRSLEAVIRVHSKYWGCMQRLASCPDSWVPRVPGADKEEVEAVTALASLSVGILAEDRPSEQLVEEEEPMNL

HDAC4 = HDAC4 (Homo sapiens (Human), UniProt P56524); details: Table 1, literature data; read-out: Inhibitory Potency (IC50) HDAC 4; cited from earlier work
HDAC4, sequence (P56524 whole entry): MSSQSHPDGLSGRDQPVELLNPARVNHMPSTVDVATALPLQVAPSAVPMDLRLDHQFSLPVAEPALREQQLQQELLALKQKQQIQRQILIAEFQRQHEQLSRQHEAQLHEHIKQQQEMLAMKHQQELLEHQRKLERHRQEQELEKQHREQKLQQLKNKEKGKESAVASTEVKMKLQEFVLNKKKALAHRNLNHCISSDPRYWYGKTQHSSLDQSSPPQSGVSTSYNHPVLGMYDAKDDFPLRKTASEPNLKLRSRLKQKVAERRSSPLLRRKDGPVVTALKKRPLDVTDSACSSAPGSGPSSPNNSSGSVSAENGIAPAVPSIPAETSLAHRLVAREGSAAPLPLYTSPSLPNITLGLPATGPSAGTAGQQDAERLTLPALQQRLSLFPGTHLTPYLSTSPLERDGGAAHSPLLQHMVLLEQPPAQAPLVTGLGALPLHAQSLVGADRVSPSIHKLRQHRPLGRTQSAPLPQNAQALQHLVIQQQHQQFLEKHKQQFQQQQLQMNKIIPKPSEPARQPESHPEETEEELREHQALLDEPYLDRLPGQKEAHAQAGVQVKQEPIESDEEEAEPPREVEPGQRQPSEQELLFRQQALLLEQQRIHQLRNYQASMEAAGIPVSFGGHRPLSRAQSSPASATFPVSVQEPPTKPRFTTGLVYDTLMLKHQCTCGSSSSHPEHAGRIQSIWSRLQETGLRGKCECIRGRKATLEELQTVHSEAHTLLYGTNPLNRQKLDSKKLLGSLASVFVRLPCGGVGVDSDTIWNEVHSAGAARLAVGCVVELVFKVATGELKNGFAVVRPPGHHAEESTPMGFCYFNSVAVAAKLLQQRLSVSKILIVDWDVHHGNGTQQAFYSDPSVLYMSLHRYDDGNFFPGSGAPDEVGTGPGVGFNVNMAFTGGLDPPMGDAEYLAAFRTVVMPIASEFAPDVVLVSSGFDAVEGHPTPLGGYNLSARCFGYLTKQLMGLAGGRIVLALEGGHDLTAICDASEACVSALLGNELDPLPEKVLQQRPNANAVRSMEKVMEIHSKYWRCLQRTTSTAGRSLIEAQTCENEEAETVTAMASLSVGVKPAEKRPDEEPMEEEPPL

HDAC10 = HDAC10 (Homo sapiens (Human), UniProt Q969S8); details: Table 1, literature data; read-out: Inhibitory Potency (IC50) HDAC 10; cited from earlier work
in vivo = details: rat
HCT116 cells [2] = test: Histone acetylation by Western blotting; type: cell-based; details: HCT116, 1 h exposure; TSA 0.2 μM, others 2 μM (FIG. 1A)
HCT116 cells [3] = test: H3K18ac after 6 h pulse treatment and drug washout; type: cell-based; details: for time at which histone acetylation (H3K18ac) was induced: HCT116, 6 h pulse exposure; for time up to which induced acetylation was maintained: HCT116, 6 h pulse then drug washout, time after drug addition
[4] = rat, ref (6); cited from earlier work
[5] = system: Ad-MLP-Luc reporter in HCT116 cell line; test: Ad-MLP-Luc luciferase reporter activation; type: cell-based; details: HCT116, dose-dependent
HDAC1 [6] = biological target: T2, HDAC1 (Homo sapiens (Human), UniProt Q13547); details: Table 1, literature data; read-out: Inhibitory Potency (IC50) HDAC 1; cited from earlier work
T2 sequence (Q13547 whole entry): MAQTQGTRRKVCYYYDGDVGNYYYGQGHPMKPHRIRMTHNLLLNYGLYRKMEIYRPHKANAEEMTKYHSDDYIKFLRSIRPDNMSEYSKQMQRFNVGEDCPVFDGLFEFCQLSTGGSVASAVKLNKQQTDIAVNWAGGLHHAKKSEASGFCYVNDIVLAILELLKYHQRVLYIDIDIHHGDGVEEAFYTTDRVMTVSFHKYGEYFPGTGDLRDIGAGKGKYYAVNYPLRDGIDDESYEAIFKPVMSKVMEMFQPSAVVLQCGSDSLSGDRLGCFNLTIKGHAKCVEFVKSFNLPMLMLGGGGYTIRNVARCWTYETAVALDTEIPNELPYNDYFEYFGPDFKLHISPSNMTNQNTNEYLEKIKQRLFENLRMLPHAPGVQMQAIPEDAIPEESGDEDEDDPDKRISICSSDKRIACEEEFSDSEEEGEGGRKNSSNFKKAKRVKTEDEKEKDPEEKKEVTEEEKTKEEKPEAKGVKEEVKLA

HDAC1 [7] = biological target: T2, HDAC1; test: In vitro HDAC1 inhibition of HTS hits (HDAC I/II-Glo reagents); type: biochemical; details: HTS follow-up
HDAC3 [8] = biological target: T3, HDAC3 (Homo sapiens (Human), UniProt O15379); test: HDAC-3 inhibition potency, luminescence readout; type: biochemical; details: Table 6, luminescence readout
T3 sequence (O15379 whole entry): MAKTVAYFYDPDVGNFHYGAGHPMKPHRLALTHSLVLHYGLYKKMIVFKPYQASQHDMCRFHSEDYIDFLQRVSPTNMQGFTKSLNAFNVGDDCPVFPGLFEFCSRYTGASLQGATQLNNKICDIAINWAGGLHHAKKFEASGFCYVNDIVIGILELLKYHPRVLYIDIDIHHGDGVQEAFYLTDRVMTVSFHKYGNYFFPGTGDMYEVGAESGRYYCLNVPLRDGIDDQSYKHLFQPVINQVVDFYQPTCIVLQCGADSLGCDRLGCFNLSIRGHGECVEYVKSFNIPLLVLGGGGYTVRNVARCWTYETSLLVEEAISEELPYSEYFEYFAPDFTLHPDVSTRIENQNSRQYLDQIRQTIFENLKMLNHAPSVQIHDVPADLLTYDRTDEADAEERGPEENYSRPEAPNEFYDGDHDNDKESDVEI
T3 sequence (Q9Y618 395-489 partner): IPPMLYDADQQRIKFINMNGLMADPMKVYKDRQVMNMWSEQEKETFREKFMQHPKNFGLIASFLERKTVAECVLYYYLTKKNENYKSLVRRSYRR

MDA-MB-231 cells = test: Cancer cell viability (CellTiter-Glo); type: cell-based; details: for pIC50: Homo sapiens, MDA-MB-231, read-out: Cancer cell (MDA-MB-231) killing IC50
HDAC2 [9] = biological target: T4, HDAC2 (Homo sapiens (Human), UniProt Q92769); test: HDAC-2 inhibition potency, luminescence readout; type: biochemical; details: Table 6, luminescence readout
T4 sequence (Q92769 whole entry): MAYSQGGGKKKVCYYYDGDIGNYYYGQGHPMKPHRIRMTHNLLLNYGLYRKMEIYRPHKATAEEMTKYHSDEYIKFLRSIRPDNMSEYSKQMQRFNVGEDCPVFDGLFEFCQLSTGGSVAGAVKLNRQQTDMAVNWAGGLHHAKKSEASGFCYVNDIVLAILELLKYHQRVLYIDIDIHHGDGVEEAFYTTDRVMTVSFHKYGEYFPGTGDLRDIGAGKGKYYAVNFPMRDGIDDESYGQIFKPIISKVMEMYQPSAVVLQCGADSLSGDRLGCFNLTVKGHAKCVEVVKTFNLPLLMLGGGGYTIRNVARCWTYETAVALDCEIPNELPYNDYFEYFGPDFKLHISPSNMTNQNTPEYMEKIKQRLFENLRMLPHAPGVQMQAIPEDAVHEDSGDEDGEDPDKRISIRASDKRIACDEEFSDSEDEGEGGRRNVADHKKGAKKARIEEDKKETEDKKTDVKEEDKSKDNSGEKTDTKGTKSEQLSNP
Excerpt: (§1) Compounds were examined for their HDAC inhibitory activity and their effect on cancer cell viability (MDA-MB-231 cells).

HDAC1 [10] = biological target: T2, HDAC1; test: HDAC-1 inhibition potency, luminescence readout; type: biochemical; details: Table 6, luminescence readout
Excerpt: as §1

HDAC6 = HDAC6 (Homo sapiens (Human), UniProt Q9UBN7); test: HDAC6 in vitro inhibition, dose response; type: biochemical; details: Table 2; read-out: HDAC 6 IC50
HDAC1 [11] = biological target: T2, HDAC1; test: HDAC1 in vitro inhibition, dose response; type: biochemical; details: Table 2; read-out: HDAC 1 IC50
HDAC3 [12] = biological target: T3, HDAC3; test: HDAC3 in vitro inhibition, dose response; type: biochemical; details: Table 2; read-out: HDAC 3 IC50
HDAC8 [13] = biological target: T1, HDAC8; test: HDAC8 in vitro inhibition, dose response; type: biochemical; details: Table 2; read-out: HDAC 8 IC50
HDAC2 [14] = biological target: T4, HDAC2; test: HDAC2 in vitro inhibition, dose response; type: biochemical; details: Table 2; read-out: HDAC 2 IC50

SMILES: CC(=O)Nc1ccc(C(=O)Nc2cc(-c3cccs3)ccc2N)cc1 [Cpd60]
pIC50 (HDAC9): < 4.52 | pIC50 (HDAC8 [1]): < 4.52 | pIC50 (HDAC5): < 4.52 | pIC50 (HDAC7): < 4.52 | pIC50 (HDAC4): < 4.52 | pIC50 (HDAC10): 5.47

SMILES: Nc1ccccc1NC(=O)c1ccc(CNC(=O)OCc2cccnc2)cc1 [MS-275, entinostat]
MTD (in vivo): ~1.5 mg/kg | accumulation of acetylated histones (HCT116 cells [2]): only slightly induced acetylation at several sites but failed to induce acetylation at most sites | time at which histone acetylation (H3K18ac) was induced (HCT116 cells [3]): 18 h | time up to which induced acetylation was maintained (HCT116 cells [3]): at least 48 h | MTD [4]: 3.1 mg/kg

SMILES: C/C=C1\NC(=O)[C@H]2CSSCC/C=C/[C@H](CC(=O)N[C@H](C(C)C)C(=O)N2)OC(=O)[C@H](C(C)C)NC1=O [Romidepsin, romidepsin]
time at which histone acetylation (H3K18ac) was induced (HCT116 cells [3]): quickly induced acetylation | time up to which induced acetylation was maintained (HCT116 cells [3]): up to 24 h | Ad-MLP-Luc reporter activity [5]: dramatically increased | pIC50 (HDAC4): 7.52 | pIC50 (HDAC1 [6]): 8.70

SMILES: O=C(CCCCCCC(=O)Nc1ccccc1)NO [SAHA, vorinostat, reference compound]
potency of HDAC1 inhibition in vitro (HDAC1 [7]): < 10 µM

HDAC inhibition potency (IC50) HDAC3 (HDAC3 [8]): No inhibition | HDAC inhibition potency (IC50) HDAC2 (HDAC2 [9]): No inhibition | HDAC inhibition potency (IC50) HDAC1 (HDAC1 [10]): No inhibition
SMILES: CCCCNNC(=O)c1ccccc1-c1ccccc1 [SR-3459]
pIC50 (MDA-MB-231 cells): < 4.00 | effect on cancer cell viability (MDA-MB-231 cells; MDA-MB-231): does not impair cancer cell viability

SMILES: CCCCNNC(=O)c1ccc(-c2cccc(F)c2F)cc1 [SR-4370, N′-butyl-2′,3′-difluorobiphenyl-4-carbohydrazide]
pIC50 (HDAC6): 5.43 | pIC50 (HDAC3 [8]): 8.22 | pIC50 (HDAC1 [11]): 6.89 | pIC50 (MDA-MB-231 cells): 4.90 | pIC50 (HDAC3 [12]): 8.22 | pIC50 (HDAC8 [13]): 5.64 | pIC50 (HDAC2 [9]): 6.24 | pIC50 (HDAC1 [10]): 6.89 | pIC50 (HDAC2 [14]): 6.24

Source: patent US10807944B2, “HDAC inhibitor compounds and methods of treatment” (priority 2014, dated 2020)
